Data from patent US6274715A, “Tricyclic erythromycin derivatives” (priority 1997, dated 2001).
In brackets after ≈: the same amount, converted by molar mass.

Columns and labels:
Format in all cases: cell-based
[1] = system: STAPHYLOCOCCUS AUREUS ATCC 6538P; assay: In vitro antibacterial activity, MIC, BHI agar dilution; details: S. aureus ATCC 6538P, 35-37° C., 20 to 24 hours, unit assumed
[2] = system: STAPHYLOCOCCUS AUREUS A-5278; assay: as above; details: S. aureus A-5278, unit assumed
[3] = system: STAPHYLOCOCCUS AUREUS CMX 642A; assay: as above; details: S. aureus CMX 642A, unit assumed
[4] = system: STAPHYLOCOCCUS AUREUS NCTC10649M; assay: as above; details: S. aureus NCTC10649M, unit assumed
[5] = system: STAPHYLOCOCCUS AUREUS CMX 553; assay: as above; details: S. aureus CMX 553, unit assumed
[6] = system: STAPHYLOCOCCUS AUREUS 1775; assay: as above; details: S. aureus 1775, unit assumed
[7] = system: STAPHYLOCOCCUS EPIDERMIDIS 3519; details: S. epidermidis 3519; BHI agar; unit assumed
EN[…] ATCC 8043 = assay: In vitro antibacterial activity, MIC, BHI agar dilution; details: E. faecium ATCC 8043, unit assumed
Outline: (§1)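 MIC was read visually as the lowest drug level with no growth, a slight haze or sparsely isolated colonies relative to a compound-free growth control. Organisms were spotted at 1:100 dilution (1:10 for slow-growing strains) onto Brain Heart Infusion agar containing serial compound dilutions and incubated 20 to 24 hours at 35-37° C.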

M[…] ATCC 4698 = assay: as above; details: M. luteus ATCC 4698, unit assumed
Outline: as §1

M[…] ATCC 9341 = assay: as above; details: M. luteus ATCC 9341, unit assumed
Outline: as §1

STR[…] 508 = assay: as above; details: S. agalactiae CMX 508, unit assumed
Outline: as §1

[8] = system: STREPTOCOCCUS BOVIS A-5169; assay: as above; details: S. bovis A-5169, unit assumed
[9] = system: STREPTOCOCCUS PYOGENES EES61; assay: as above; details: S. pyogenes EES61, unit assumed
[10] = system: STREPTOCOCCUS PYOGENES 930; assay: as above; details: S. pyogenes 930, unit assumed
[11] = system: STREPTOCOCCUS PYOGENES PIU 2548; assay: as above; details: S. pyogenes PIU 2548, unit assumed
ESCHERICHIA COLI JUHL = details: E. coli JUHL; BHI agar; unit assumed
ESCHERICHIA COLI SS = assay: In vitro antibacterial activity, MIC, BHI agar dilution; details: E. coli SS, unit assumed
ESCHERICHIA COLI DC-2 = assay: as above; details: E. coli DC-2, unit assumed
ESCHERICHIA COLI H560 = assay: as above; details: E. coli H560, unit assumed
ESCHERICHIA COLI KNK 437 = details: E. coli KNK 437; BHI agar; unit assumed
[12] = system: ENTEROBACTER AEROGENES ATCC 13048; assay: In vitro antibacterial activity, MIC, BHI agar dilution; details: E. aerogenes ATCC 13048, unit assumed
[13] = system: KLEBSIELLA PNEUMONIAE ATCC 8045; assay: as above; details: K. pneumoniae ATCC 8045, unit assumed
[14] = system: PROVIDENCIA STUARTII CMX 640; details: P. stuartii CMX 640; BHI agar; unit assumed
[15] = system: PSEUDOMONAS AERUGINOSA BMH10; assay: In vitro antibacterial activity, MIC, BHI agar dilution; details: P. aeruginosa BMH10, unit assumed
[16] = system: PSEUDOMONAS AERUGINOSA 5007; assay: as above; details: P. aeruginosa 5007, unit assumed
[17] = system: PSEUDOMONAS AERUGINOSA K799/WT; assay: as above; details: P. aeruginosa K799/WT, unit assumed
[18] = system: PSEUDOMONAS AERUGINOSA K799/61; assay: as above; details: P. aeruginosa K799/61, unit assumed
PSEUDOMONAS CEPACIA 296I = assay: as above; details: P. cepacia 296I, unit assumed
[19] = system: PSEUDOMONAS AERUGINOSA DPHD-5263; assay: as above; details: P. aeruginosa DPHD-5263, unit assumed
[20] = system: PSEUDOMONAS AERUGINOSA DPHD-2862; assay: as above; details: P. aeruginosa DPHD-2862, unit assumed
CANDIDA ALBICANS CCH 442 = assay: as above; details: C. albicans CCH 442, unit assumed
[21] = system: MYCOBACTERIUM SMEGMATIS ATCC 114; assay: as above; details: M. smegmatis ATCC 114, unit assumed
H. Influenza Dill AMP R = assay: In vitro antibacterial activity against H. Influenza Dill AMP R, MIC; details: separate assay, unit assumed
Description: Representative compounds of the present invention were assayed in vitro for antibacterial activity as follows: Twelve petri dishes containing successive aqueous dilutions of the test compound mixed with 10 mL of sterilized Brain Heart Infusion (BHI) agar (Difco 0418-01-5) were prepared. Each plate was inoculated with 1:100 (or 1:10 for slow-growing strains, such as Micrococcus and Streptococcus) dilutions of up to 32 different microorganisms, using a Steers replicator block. The inoculated plates were incubated at 35-37° C. for 20 to 24 hours. In addition, a control plate, using BHI agar containing no test compound, was prepared and incubated at the beginning and end of each test.
After incubation, each plate was visually inspected. The minimum inhibitory concentration (MIC) was defmed as the lowest concentration of drug yielding no growth, a slight haze, or sparsely isolated colonies on the inoculum spot as compared to the growth control.
In a separate assay representative compounds of the invention were assayed in vitro for antibacterial activity against the H. Influenza Dill AMP R strain, according to the protocol described above.

[22] = system: STAPHYLOCOCCUS AUREUS A5177; assay: In vitro antibacterial activity, MIC, BHI agar dilution; details: S. aureus A5177, unit assumed

SMILES	MIC [1]	MIC [2]	MIC [3]	MIC [4]	MIC [5]	MIC [6]	MIC (EN[…] ATCC 8043)	MIC (M[…] ATCC 4698)	MIC (M[…] ATCC 9341)	MIC (STR[…] 508)	MIC [8]	MIC [9]	MIC [10]	MIC [11]	MIC (ESCHERICHIA COLI JUHL)	MIC (ESCHERICHIA COLI SS)	MIC (ESCHERICHIA COLI DC-2)	MIC (ESCHERICHIA COLI H560)	MIC (ESCHERICHIA COLI KNK 437)	MIC [13]	other results
CCC1OC(=O)C(C)C(=O)C(C)C(OC2OC(C)CC(N(C)C)C2O)C(C)(OC)CC(C)C2=NC(c3ccccc3)C(c3ccccc3)N3C(=O)OC1(C)C3C2C (stereo not shown) [Example 7]	3.1 µg/mL (≈ 3.92 µM)	100 µg/mL (≈ 127 µM)	3.1 µg/mL (≈ 3.92 µM)	3.1 µg/mL (≈ 3.92 µM)	3.1 µg/mL (≈ 3.92 µM)	100 µg/mL (≈ 127 µM)	0.39 µg/mL (≈ 0.494 µM)	1.56 µg/mL (≈ 1.97 µM)	0.39 µg/mL (≈ 0.494 µM)	0.2 µg/mL (≈ 0.253 µM)	0.2 µg/mL (≈ 0.253 µM)	0.2 µg/mL (≈ 0.253 µM)	50 µg/mL (≈ 63.3 µM)	1.56 µg/mL (≈ 1.97 µM)	> 100 µg/mL	3.1 µg/mL (≈ 3.92 µM)	> 100 µg/mL	> 100 µg/mL	> 100 µg/mL	> 100 µg/mL	MIC [7]: 1.56 µg/mL (≈ 1.97 µM); MIC [12]: > 100 µg/mL; MIC [14]: > 100 µg/mL; MIC [15]: > 100 µg/mL; MIC [16]: > 100 µg/mL; MIC [17]: > 100 µg/mL; MIC [18]: 6.2 µg/mL (≈ 7.85 µM); MIC (PSEUDOMONAS CEPACIA 296I): > 100 µg/mL; MIC [19]: > 100 µg/mL; MIC [20]: > 100 µg/mL; MIC (CANDIDA ALBICANS CCH 442): > 100 µg/mL; MIC [21]: 1.56 µg/mL (≈ 1.97 µM); MIC (H. Influenza Dill AMP R): 64 µg/mL (≈ 81 µM)
CC[C@H]1OC(=O)[C@H](C)C(=O)[C@H](C)[C@@H](O[C@@H]2O[C@H](C)C[C@H](N(C)C)[C@H]2O)[C@](C)(OC)C[C@@H](C)C2=NC[C@H](COCc3ccccc3)N3C(=O)O[C@@]1(C)[C@H]3[C@H]2C [Example 41]	0.05 µg/mL (≈ 0.066 µM)	> 100 µg/mL	0.05 µg/mL (≈ 0.066 µM)	0.05 µg/mL (≈ 0.066 µM)	0.05 µg/mL (≈ 0.066 µM)	> 100 µg/mL	0.02 µg/mL (≈ 0.0264 µM)	0.1 µg/mL (≈ 0.132 µM)	0.01 µg/mL (≈ 0.0132 µM)	0.02 µg/mL (≈ 0.0264 µM)	≤ 0.005 µg/mL	0.01 µg/mL (≈ 0.0132 µM)	> 100 µg/mL	0.2 µg/mL (≈ 0.264 µM)	6.2 µg/mL (≈ 8.18 µM)	0.2 µg/mL (≈ 0.264 µM)	3.1 µg/mL (≈ 4.09 µM)	1.56 µg/mL (≈ 2.06 µM)	6.2 µg/mL (≈ 8.18 µM)	25 µg/mL (≈ 33 µM)	MIC [22]: 0.05 µg/mL (≈ 0.066 µM); MIC [14]: 50 µg/mL (≈ 66 µM); MIC [15]: 50 µg/mL (≈ 66 µM); MIC [16]: 50 µg/mL (≈ 66 µM); MIC [18]: 0.2 µg/mL (≈ 0.264 µM); MIC (PSEUDOMONAS CEPACIA 296I): 12.5 µg/mL (≈ 16.5 µM); MIC [19]: 12.5 µg/mL (≈ 16.5 µM); MIC [20]: 50 µg/mL (≈ 66 µM); MIC (CANDIDA ALBICANS CCH 442): > 100 µg/mL; MIC [21]: 0.2 µg/mL (≈ 0.264 µM); MIC (H. Influenza Dill AMP R): 2 µg/mL (≈ 2.64 µM)
